Values belong to the compound of their own block, whether it stands above or below them.
How the values were obtained:
[1] = test system: liver; assay: Capture by the liver, in rats, of lyso-PCDHA and non-esterified DHA; format: in vivo; conditions: 20-day-old rat, intravenous; lyso-PCDHA vs non-esterified DHA
Source text: (§1) FIG. 3 represents the variation of the radio-activity recovered in the total lipids: A from the brain, B from the kidney, C from the heart and D from the liver, after injecting tritiated DHA in free form (black circle) or in the form of 2-DHA-1-lyso-PC (black triangle).
(§2) The animal studied is a 20-day-old rat in which the cerebral lipid metabolism is at its peak.
(§3) The lyso-PC's are labelled on the fatty acid and the choline, attached to albumin and administered intravenously (50). […] It therefore appears that the lyso-PCDHA's attached to albumin constitute a particularly preferred form of supply of DHA to the developing brain.

[2] = test system: heart; assay: Capture by the heart, in rats, of lyso-PCDHA and non-esterified DHA; format: in vivo; conditions: 20-day-old rat, intravenous; lyso-PCDHA vs non-esterified DHA
Source text: as §1, §2, §3

[3] = test system: brain; assay: Capture by the brain, in rats, of lyso-PC's; format: in vivo; conditions: 20-day-old rat, intravenous, attached to albumin; compared with lyso-PC's comprising 18:1, 18:2 and 20:4
Source text: as §1, §2, §3

[4] = test system: kidney; assay: Capture by the kidney, in rats, of lyso-PCDHA and non-esterified DHA; format: in vivo; conditions: 20-day-old rat, intravenous; lyso-PCDHA vs non-esterified DHA
Source text: as §1, §2, §3

[5] = test system: brain; assay: Distribution of the radioactivity between the lipid classes of the brain after intravenous injection of lyso-PCDHA or non-esterified DHA; format: in vivo, rat; conditions: for radioactivity in OTHERS of the brain / radioactivity in AG of the brain / radioactivity in DG of the brain / radioactivity in LN of the brain / radioactivity in Lyso-PC of the brain / radioactivity in MG of the brain / radioactivity in PC of the brain / radioactivity in PE of the brain / radioactivity in PS of the brain / radioactivity in Pi of the brain / radioactivity in TG of the brain: injection of Lyso-PCDHA
Source text: as §2, §3

[6] = test system: alpha2 -adrenergic receptor; conditions: platelet membranes; cited from earlier work
[7] = test system: platelets; conditions: concentrations which do not bring the TXA2/PGH2 receptor into play; cited from earlier work
[8] = test system: platelets; conditions: cited from earlier work
[9] = test system: platelets; conditions: concentrations which do not bring the TXA2/PGH2 receptor into play; cited from earlier work; remark: listed apart in the source
[10] = test system: TXA2 /PGH2 receptor; conditions: cited from earlier work
[11] = test system: TXA2 /PGH2 receptor; conditions: whole platelets or solubilized platelet membranes; cited from earlier work
[12] = incorporation in vitro into the platelet lipid reserves, by means of albumin

capture by the brain [3]: particularly well captured by the brain
Compound: CC/C=C\C/C=C\C/C=C\C/C=C\C/C=C\C/C=C\CCC(=O)OC(CO)COP(=O)([O-])OCC[N+](C)(C)C (stereo not shown) [lyso-PCDHA, 1-lyso-2-DHA-glycerophosphocholine]
capture by the liver [1]: do not capture the lyso-PCDHA's as effectively as the non-esterified DHA | capture by the heart [2]: do not capture the lyso-PCDHA's as effectively as the non-esterified DHA | capture by the kidney [4]: captures the two forms of supply in essentially the same manner | esterification in the phosphatidylethanolamines ([5]; brain, rat, after injection): very rapidly, a differential esterification is produced in the phosphatidylethanolamines | reacylation of DHA in the phosphatidylcholines ([5]; brain, rat, first stages after the injection): low and is visible only in the first stages after the injection | radioactivity in OTHERS of the brain [5]: 3.7 % of the radioactivity of the total lipids | radioactivity in AG of the brain ([5]; 2.5 min): 15.3 % of the radioactivity of the total lipids | radioactivity in DG of the brain ([5]; 2.5 min): 10.8 % of the radioactivity of the total lipids | radioactivity in LN of the brain ([5]; 2.5 min): 29.3 % of the radioactivity of the total lipids | radioactivity in Lyso-PC of the brain ([5]; 2.5 min): 4.1 % of the radioactivity of the total lipids | radioactivity in MG of the brain ([5]; 2.5 min): 2.2 % of the radioactivity of the total lipids | radioactivity in PC of the brain ([5]; 2.5 min): 25.6 % of the radioactivity of the total lipids | radioactivity in PE of the brain ([5]; 2.5 min): 28.2 % of the radioactivity of the total lipids | radioactivity in PS of the brain ([5]; 2.5 min): 3.9 % of the radioactivity of the total lipids | radioactivity in Pi of the brain ([5]; 2.5 min): 8.9 % of the radioactivity of the total lipids | radioactivity in TG of the brain ([5]; 2.5 min): 1.0 % of the radioactivity of the total lipids | radioactivity in AG of the brain ([5]; 5 min): 21.2 % of the radioactivity of the total lipids | radioactivity in DG of the brain ([5]; 5 min): 9.3 % of the radioactivity of the total lipids | radioactivity in LN of the brain ([5]; 5 min): 35.3 % of the radioactivity of the total lipids | radioactivity in Lyso-PC of the brain ([5]; 5 min): 0.4 % of the radioactivity of the total lipids | radioactivity in MG of the brain ([5]; 5 min): 2.3 % of the radioactivity of the total lipids | radioactivity in OTHERS of the brain ([5]; 5 min): 11.4 % of the radioactivity of the total lipids | radioactivity in PC of the brain ([5]; 5 min): 17.8 % of the radioactivity of the total lipids | radioactivity in PE of the brain ([5]; 5 min): 26.3 % of the radioactivity of the total lipids | radioactivity in PS of the brain ([5]; 5 min): 5.3 % of the radioactivity of the total lipids | radioactivity in Pi of the brain ([5]; 5 min): 3.4 % of the radioactivity of the total lipids | radioactivity in TG of the brain ([5]; 5 min): 2.5 % of the radioactivity of the total lipids | radioactivity in AG of the brain ([5]; 6.5 min): 17.2 % of the radioactivity of the total lipids | radioactivity in DG of the brain ([5]; 6.5 min): 9.4 % of the radioactivity of the total lipids | radioactivity in LN of the brain ([5]; 6.5 min): 31.6 % of the radioactivity of the total lipids | radioactivity in Lyso-PC of the brain ([5]; 6.5 min): 1.2 % of the radioactivity of the total lipids | radioactivity in MG of the brain ([5]; 6.5 min): 2.7 % of the radioactivity of the total lipids | radioactivity in PC of the brain ([5]; 6.5 min): 26.2 % of the radioactivity of the total lipids | radioactivity in PE of the brain ([5]; 6.5 min): 28.1 % of the radioactivity of the total lipids | radioactivity in PS of the brain ([5]; 6.5 min): 5.3 % of the radioactivity of the total lipids | radioactivity in Pi of the brain ([5]; 6.5 min): 3.7 % of the radioactivity of the total lipids | radioactivity in TG of the brain ([5]; 6.5 min): 2.3 % of the radioactivity of the total lipids | radioactivity in AG of the brain ([5]; 15 min): 13.9 % of the radioactivity of the total lipids | radioactivity in DG of the brain ([5]; 15 min): 5.8 % of the radioactivity of the total lipids | radioactivity in LN of the brain ([5]; 15 min): 23.7 % of the radioactivity of the total lipids | radioactivity in Lyso-PC of the brain ([5]; 15 min): 0.2 % of the radioactivity of the total lipids | radioactivity in MG of the brain ([5]; 15 min): 1.8 % of the radioactivity of the total lipids | radioactivity in OTHERS of the brain ([5]; 15 min): 2.6 % of the radioactivity of the total lipids | radioactivity in PC of the brain ([5]; 15 min): 26.8 % of the radioactivity of the total lipids | radioactivity in PE of the brain ([5]; 15 min): 38.9 % of the radioactivity of the total lipids | radioactivity in PS of the brain ([5]; 15 min): 4.6 % of the radioactivity of the total lipids | radioactivity in Pi of the brain ([5]; 15 min): 3.2 % of the radioactivity of the total lipids | radioactivity in TG of the brain ([5]; 15 min): 2.3 % of the radioactivity of the total lipids | radioactivity in AG of the brain ([5]; 30 min): 11 % of the radioactivity of the total lipids | radioactivity in DG of the brain ([5]; 30 min): 4 % of the radioactivity of the total lipids | radioactivity in LN of the brain ([5]; 30 min): 17.8 % of the radioactivity of the total lipids | radioactivity in Lyso-PC of the brain ([5]; 30 min): 0 % of the radioactivity of the total lipids | radioactivity in MG of the brain ([5]; 30 min): 0.7 % of the radioactivity of the total lipids | radioactivity in OTHERS of the brain ([5]; 30 min): 3.8 % of the radioactivity of the total lipids | radioactivity in PC of the brain ([5]; 30 min): 24.1 % of the radioactivity of the total lipids | radioactivity in PE of the brain ([5]; 30 min): 46.4 % of the radioactivity of the total lipids | radioactivity in PS of the brain ([5]; 30 min): 5.0 % of the radioactivity of the total lipids | radioactivity in Pi of the brain ([5]; 30 min): 2.6 % of the radioactivity of the total lipids | radioactivity in TG of the brain ([5]; 30 min): 2.1 % of the radioactivity of the total lipids | radioactivity in AG of the brain ([5]; 60 min): 10.0 % of the radioactivity of the total lipids | radioactivity in DG of the brain ([5]; 60 min): 2.6 % of the radioactivity of the total lipids | radioactivity in LN of the brain ([5]; 60 min): 16.7 % of the radioactivity of the total lipids | radioactivity in Lyso-PC of the brain ([5]; 60 min): 0 % of the radioactivity of the total lipids | radioactivity in MG of the brain ([5]; 60 min): 0.4 % of the radioactivity of the total lipids | radioactivity in OTHERS of the brain ([5]; 60 min): 5.3 % of the radioactivity of the total lipids | radioactivity in PC of the brain ([5]; 60 min): 24.9 % of the radioactivity of the total lipids | radioactivity in PE of the brain ([5]; 60 min): 49.2 % of the radioactivity of the total lipids | radioactivity in PS of the brain ([5]; 60 min): 3.9 % of the radioactivity of the total lipids | radioactivity in Pi of the brain ([5]; 60 min): 2.6 % of the radioactivity of the total lipids | radioactivity in TG of the brain ([5]; 60 min): 1.4 % of the radioactivity of the total lipids

Compound: CC/C=C\C/C=C\C/C=C\C/C=C\C/C=C\CCCC(=O)O [20:5n-3, eicosapentanoic acid]
effect on binding of yohimbine to alpha2-adrenergic receptor [6]: do not modify binding of yohimbine | effect on platelet aggregation induced by ionophore A 23187 [7]: none of these fatty acids affects the platelet aggregation | aggregability of the platelets in response to U 46.619 [8, 12]: loss of aggregability of the platelets in response to U 46.619 | inhibition of platelet aggregation induced by U 46.619 ([8]; non-esterified fatty acid): competitively inhibit platelet aggregation induced by U 46.619 | effect on platelet aggregation induced by thrombin [9]: none of these fatty acids affects the platelet aggregation | affinity of U 46.619 for its receptor [10, 12]: decrease in the affinity of the agonist for its receptor | inhibition of specific binding of U 46.619 to washed platelets ([10]; non-esterified fatty acid): competitively inhibit | alteration of the TXA2 /PGH2 receptor [11]: specifically alter the TXA2 /PGH2 receptor

— US5654290A, “Polyunsaturated fatty acid based drugs” (Institut National de la Sante et de la Recherche Medicale, priority 1992, dated 1997)
